According to patent US20260078103A1, “ISOQUINOLONES AS PI3K INHIBITORS” (OnKure, Inc., priority 2022, published 2026):
Read-outs that look alike come from different tables or passages of the source.

Columns and labels:
Assay type in all cases: cell-based
[1] = system: SKBR3 cells express WT PI3Ka; assay: In vitro cell proliferation, SKBR3 cells (CellTiter-Glo); settings: inhibition of proliferation
How it was run: (§1)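 EC50 values derive from a four-parameter logistic fit of luminescence-based (CellTiter-Glo) inhibition, referenced to 0.1% DMSO and 10 uM Alpelisib controls. Compound exposure lasted 72 h at 37 °C.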

[2] = system: T47D cells expressing mutant PI3Ka (H1047R); assay: In vitro cell proliferation, T47D cells (CellTiter-Glo); settings: inhibition of proliferation, read-out: Avg T-47D EC50
How it was run: as §1

[3] = system: phosphorylation of AKT (pAKT) in T47D cells expressing mutant PI3Ka (H1047R); assay: In vitro cell pAKT (Ser473) HTRF, T47D cells; settings: cellular pAKT, T47D cells, mutant PI3Ka (H1047R), 6 hours, read-out: Avg T-47D IC50
How it was run: (§2)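 pAKT (Ser473) was quantified by HTRF in lysates from cells exposed 6 h at 37 °C to 10-point compound series, with T47D in insulin-supplemented RPMI/10% FBS and SKBR3 in McCoy's 5a/10% FBS. Controls: 0.1% DMSO (high) and 10 uM alpelisib (low). IC50 from sigmoidal curve fitting.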

[4] = system: phosphorylation of AKT (pAKT) in SKBR3 cells express WT PI3Ka; assay: In vitro cell pAKT (Ser473) HTRF, SKBR3 cells; settings: cellular pAKT
How it was run: as §2

SMILES | EC50 ([1]; Homo sapiens, SK-BR-3, 72 h) | EC50 ([2]; Homo sapiens, T47D, 72 h) | IC50 ([3]; Homo sapiens, T47D, 6 h) | IC50 ([4]; Homo sapiens, SK-BR-3, 6 h) | EC50 ([1]; 72 hours) | EC50 ([2]; 72 hours) | IC50 [3] | IC50 ([4]; 6 hours)
Cc1cc([C@@H](C)Nc2ccccc2C(=O)O)c2cc(N3CCN(c4cccnc4C#N)CC3)n(C)c(=O)c2c1 [Example 188] | 2000 to 15000 nM | 1 to 500 nM | 1 to 500 nM | 500 to 2000 nM | – | – | – | –
Cc1cc([C@@H](C)Nc2ccccc2C(=O)O)c2cc(-c3ccc(OC(F)F)nc3)n(C)c(=O)c2c1 [Example 189] | > 15000 nM | 1 to 500 nM | 1 to 500 nM | > 15000 nM | – | – | – | –
Cc1cc(C(C)Nc2ccccc2C(=O)O)c2cc(N3CC4C(C3)C4C(F)(F)F)n(C)c(=O)c2c1 (centres unmarked) [Example 191] | – | – | – | – | > 15000 nM | 500 to 2000 nM | 1 to 500 nM | > 15000 nM
Cc1cc([C@@H](C)Nc2ccccc2C(=O)O)c2cc(N3CC(F)(c4cccnc4)C3)n(C)c(=O)c2c1 [Example 192] | > 15000 nM | 1 to 500 nM | 1 to 500 nM | > 15000 nM | – | – | – | –
COCC1CN(c2cc3c([C@@H](C)Nc4ccccc4C(=O)O)cc(C)cc3c(=O)n2C)C1 [Example 193] | > 15000 nM | 500 to 2000 nM | 1 to 500 nM | > 15000 nM | – | – | – | –
Cc1cc([C@@H](C)Nc2ccccc2C(=O)O)c2cc(-c3ccc(Oc4ccc(F)cc4)nc3)n(C)c(=O)c2c1 [Example 194] | – | – | – | – | > 15000 nM | 500 to 2000 nM | 1 to 500 nM | > 15000 nM
Cc1cc([C@@H](C)Nc2ccccc2C(=O)O)c2cc(N3CC4(CCCN(CC(F)(F)F)C4)C3)n(C)c(=O)c2c1 [Example 195] | – | – | – | – | > 15000 nM | 500 to 2000 nM | 1 to 500 nM | > 15000 nM
Cc1cc([C@@H](C)Nc2ccccc2C(=O)O)c2cc(N3CCN(c4cccc(C)n4)CC3)n(C)c(=O)c2c1 [Example 196] | – | – | – | – | > 15000 nM | 1 to 500 nM | 1 to 500 nM | 2000 to 15000 nM
Cc1cc([C@@H](C)Nc2ccccc2C(=O)O)c2cc(N3CCN(c4ccccc4C#N)CC3)n(C)c(=O)c2c1 [Example 197] | > 15000 nM | 1 to 500 nM | 1 to 500 nM | 2000 to 15000 nM | – | – | – | –
Cc1cc([C@@H](C)Nc2ccccc2C(=O)O)c2cc(N3CCN(c4ncnn4C)CC3)n(C)c(=O)c2c1 [Example 198] | > 15000 nM | 500 to 2000 nM | 500 to 2000 nM | > 15000 nM | – | – | – | –
Cc1cc([C@@H](C)Nc2ccccc2C(=O)O)c2cc(N3CCN(c4ncccc4C#N)CC3)n(C)c(=O)c2c1 [Example 199] | 2000 to 15000 nM | 1 to 500 nM | 1 to 500 nM | 2000 to 15000 nM | – | – | – | –
Cc1cc([C@@H](C)Nc2ccccc2C(=O)O)c2cc(N3CCN(Cc4cnn(C)c4)CC3)n(C)c(=O)c2c1 [Example 200] | > 15000 nM | 500 to 2000 nM | 500 to 2000 nM | > 15000 nM | – | – | – | –
Cc1cc([C@@H](C)Nc2ccccc2C(=O)O)c2cc(-c3ccc(OCC(F)F)nc3)n(C)c(=O)c2c1 [Example 201] | > 15000 nM | 1 to 500 nM | 1 to 500 nM | > 15000 nM | – | – | – | –
Cc1cc([C@@H](C)Nc2ccccc2C(=O)O)c2cc(-c3ccc(O[C@H]4C[C@@H](F)C4)nc3)n(C)c(=O)c2c1 [Example 202] | – | – | – | – | > 15000 nM | 1 to 500 nM | 1 to 500 nM | > 15000 nM
Cc1cc([C@@H](C)Nc2ccccc2C(=O)O)c2cc(N3CCN(C(=O)OC4CC4)CC3)n(C)c(=O)c2c1 [Example 203] | > 15000 nM | 1 to 500 nM | 1 to 500 nM | > 15000 nM | – | – | – | –
Cc1cc([C@@H](C)Nc2ccccc2C(=O)O)c2cc(N3CCN(c4cccnc4C)CC3)n(C)c(=O)c2c1 [Example 206] | 2000 to 15000 nM | 1 to 500 nM | 1 to 500 nM | 500 to 2000 nM | – | – | – | –
Cc1cc([C@@H](C)Nc2ccccc2C(=O)O)c2cc(N3CC4CC(C3)N4CC(F)(F)F)n(C)c(=O)c2c1 [Example 207] | > 15000 nM | 1 to 500 nM | 1 to 500 nM | > 15000 nM | – | – | – | –
Cc1cc([C@@H](C)Nc2ccccc2C(=O)O)c2cc(-c3ccc(OCC4CC4)nc3)n(C)c(=O)c2c1 [Example 208] | > 15000 nM | 1 to 500 nM | 1 to 500 nM | > 15000 nM | – | – | – | –
Cc1cc([C@@H](C)Nc2ccccc2C(=O)O)c2cc(-c3ccc(C)nc3C)n(C)c(=O)c2c1 [Example 209] | > 15000 nM | 500 to 2000 nM | 1 to 500 nM | > 15000 nM | – | – | – | –
Cc1cc([C@@H](C)Nc2ccccc2C(=O)O)c2cc(-c3cnc(C)c(C)c3)n(C)c(=O)c2c1 [Example 210] | > 15000 nM | 500 to 2000 nM | 1 to 500 nM | > 15000 nM | – | – | – | –
